# Test results published in ChEMBL document CHEMBL3885861, “Open TG-GATES”.
# Species on record: Rattus norvegicus
# Assay: Open TG-GATES - Regimen: Daily Repeat
# Format: toxicity, organism-based, Sprague-Dawley
# Parameters: regimen Daily Repeat, gender Male, age 6 weeks
# Conditions: in vivo, po, 6 mg/kg, route gavage, dose level Low; for APTT / Bas / Eos / Fbg / Hb / Ht / Lym / MCH / MCHC / MCV / Mono / Neu / PT / Plat / RBC / Ret / WBC: tissue Blood; for LIVER: tissue Liver; for A/G / ALP / ALT / AST / BUN / CRE / Ca / Cl / DBIL / GLC / IP / K / LDH / Na / PL / RALB / TBIL / TC / TG / TP / gamma-GTP: tissue Plasma
compound,measurement,setting,value
"O=[N+]([O-])c1ccc(O)c([N+](=O)[O-])c1 [2,4-DINITROPHENOL]",TERMINAL_BW,"72 h, time 3 day",247 g
same,APTT,"72 h, time 3 day",16.5 s
same,Bas,"72 h, time 3 day",0%
same,Eos,"72 h, time 3 day",1%
same,Fbg,"72 h, time 3 day",280.8 mg/dL
same,Hb,"72 h, time 3 day",13.5 g/dL
same,Ht,"72 h, time 3 day",39.7%
same,Lym,"72 h, time 3 day",70%
same,MCH,"72 h, time 3 day",21.5 pg
same,MCHC,"72 h, time 3 day",34%
same,MCV,"72 h, time 3 day",63.2 fL
same,Mono,"72 h, time 3 day",9.4%
same,Neu,"72 h, time 3 day",19.4%
same,PT,"72 h, time 3 day",11.4 s
same,Plat,"72 h, time 3 day",143.8 x10_4/uL
same,RBC,"72 h, time 3 day",628 x10_4/ul
same,Ret,"72 h, time 3 day",6.1%
same,WBC,"72 h, time 3 day",100 x10_2/uL
same,LIVER,"72 h, time 3 day",12.5 g
same,A/G,"72 h, time 3 day",2.3
same,ALP,"72 h, time 3 day",1318.2 IU/L
same,ALT,"72 h, time 3 day",36 IU/L
same,AST,"72 h, time 3 day",61.6 IU/L
same,BUN,"72 h, time 3 day",18.8 mg/dL
same,CRE,"72 h, time 3 day",0.4 mg/dL
same,Ca,"72 h, time 3 day",11.6 mg/dL
same,Cl,"72 h, time 3 day",104.4 meq/L
same,DBIL,"72 h, time 3 day",0.012 mg/dL
same,GLC,"72 h, time 3 day",190 mg/dL
same,IP,"72 h, time 3 day",7.9 mg/dL
same,K,"72 h, time 3 day",4.9 meq/L
same,LDH,"72 h, time 3 day",110.2 IU/L
same,Na,"72 h, time 3 day",137.6 meq/L
same,PL,"72 h, time 3 day",165.2 mg/dL
same,RALB,"72 h, time 3 day",4 g/dL
same,TBIL,"72 h, time 3 day",0.032 mg/dL
same,TC,"72 h, time 3 day",89.2 mg/dL
same,TG,"72 h, time 3 day",137.2 mg/dL
same,TP,"72 h, time 3 day",5.7 g/dL
same,gamma-GTP,"72 h, time 3 day",0.6 IU/L
same,TERMINAL_BW,"[…], time 7 day",282.7 g
same,TERMINAL_BW,"[…], time 14 day",318.6 g
same,TERMINAL_BW,"[…], time 28 day",445.6 g
same,APTT,"[…], time 7 day",16.4 s
same,Bas,"[…], time 7 day",0%
same,Eos,"[…], time 7 day",0.8%
same,Fbg,"[…], time 7 day",264.6 mg/dL
same,Hb,"[…], time 7 day",13.1 g/dL
same,Ht,"[…], time 7 day",38.6%
same,Lym,"[…], time 7 day",81.6%
same,MCH,"[…], time 7 day",21.3 pg
same,MCHC,"[…], time 7 day",33.9%
same,MCV,"[…], time 7 day",62.6 fL
same,Mono,"[…], time 7 day",4.2%
same,Neu,"[…], time 7 day",13.6%
same,PT,"[…], time 7 day",11.5 s
same,Plat,"[…], time 7 day",137.2 x10_4/uL
same,RBC,"[…], time 7 day",617.8 x10_4/ul
same,Ret,"[…], time 7 day",5.3%
same,WBC,"[…], time 7 day",117 x10_2/uL
same,APTT,"[…], time 14 day",17.1 s
same,Bas,"[…], time 14 day",0%
same,Eos,"[…], time 14 day",1%
same,Fbg,"[…], time 14 day",255.8 mg/dL
same,Hb,"[…], time 14 day",14.1 g/dL
same,Ht,"[…], time 14 day",41.5%
same,Lym,"[…], time 14 day",76.4%
same,MCH,"[…], time 14 day",20.9 pg
same,MCHC,"[…], time 14 day",33.9%
same,MCV,"[…], time 14 day",61.7 fL
same,Mono,"[…], time 14 day",6.4%
same,Neu,"[…], time 14 day",16.4%
same,PT,"[…], time 14 day",11.8 s
same,Plat,"[…], time 14 day",119.2 x10_4/uL
same,RBC,"[…], time 14 day",671.8 x10_4/ul
same,Ret,"[…], time 14 day",3.9%
same,WBC,"[…], time 14 day",134.2 x10_2/uL
same,APTT,"[…], time 28 day",16.5 s
same,Bas,"[…], time 28 day",0%
same,Eos,"[…], time 28 day",1.2%
same,Fbg,"[…], time 28 day",282.4 mg/dL
same,Hb,"[…], time 28 day",14.9 g/dL
same,Ht,"[…], time 28 day",43.9%
same,Lym,"[…], time 28 day",76.6%
same,MCH,"[…], time 28 day",19.6 pg
same,MCHC,"[…], time 28 day",33.9%
same,MCV,"[…], time 28 day",57.8 fL
same,Mono,"[…], time 28 day",5.6%
same,Neu,"[…], time 28 day",16.8%
same,PT,"[…], time 28 day",11.8 s
same,Plat,"[…], time 28 day",121.2 x10_4/uL
same,RBC,"[…], time 28 day",759.4 x10_4/ul
same,Ret,"[…], time 28 day",2.2%
same,WBC,"[…], time 28 day",117.4 x10_2/uL
same,LIVER,"[…], time 7 day",13.1 g
same,LIVER,"[…], time 14 day",13.9 g
same,LIVER,"[…], time 28 day",20 g
same,A/G,"[…], time 7 day",2.3
same,ALP,"[…], time 7 day",1599.8 IU/L
same,ALT,"[…], time 7 day",36.8 IU/L
same,AST,"[…], time 7 day",66 IU/L
same,BUN,"[…], time 7 day",17.6 mg/dL
same,CRE,"[…], time 7 day",0.3 mg/dL
same,Ca,"[…], time 7 day",11.4 mg/dL
same,Cl,"[…], time 7 day",104.8 meq/L
same,DBIL,"[…], time 7 day",0.012 mg/dL
same,GLC,"[…], time 7 day",188.2 mg/dL
same,IP,"[…], time 7 day",7.4 mg/dL
same,K,"[…], time 7 day",4.5 meq/L
same,LDH,"[…], time 7 day",115.4 IU/L
same,Na,"[…], time 7 day",140.8 meq/L
same,PL,"[…], time 7 day",138.6 mg/dL
same,RALB,"[…], time 7 day",3.9 g/dL
same,TBIL,"[…], time 7 day",0.03 mg/dL
same,TC,"[…], time 7 day",74.2 mg/dL
same,TG,"[…], time 7 day",121.8 mg/dL
same,TP,"[…], time 7 day",5.6 g/dL
same,gamma-GTP,"[…], time 7 day",1 IU/L
same,A/G,"[…], time 14 day",2.1
same,ALP,"[…], time 14 day",1262 IU/L
same,ALT,"[…], time 14 day",34.8 IU/L
same,AST,"[…], time 14 day",66.2 IU/L
same,BUN,"[…], time 14 day",18.8 mg/dL
same,CRE,"[…], time 14 day",0.4 mg/dL
same,Ca,"[…], time 14 day",11.1 mg/dL
same,Cl,"[…], time 14 day",106.2 meq/L
same,DBIL,"[…], time 14 day",0.01 mg/dL
same,GLC,"[…], time 14 day",184.6 mg/dL
same,IP,"[…], time 14 day",6.8 mg/dL
same,K,"[…], time 14 day",4.7 meq/L
same,LDH,"[…], time 14 day",114.6 IU/L
same,Na,"[…], time 14 day",136.8 meq/L
same,PL,"[…], time 14 day",129.4 mg/dL
same,RALB,"[…], time 14 day",3.8 g/dL
same,TBIL,"[…], time 14 day",0.016 mg/dL
same,TC,"[…], time 14 day",62.4 mg/dL
same,TG,"[…], time 14 day",125.8 mg/dL
same,TP,"[…], time 14 day",5.7 g/dL
same,gamma-GTP,"[…], time 14 day",0 IU/L
same,A/G,"[…], time 28 day",1.9
same,ALP,"[…], time 28 day",1091.6 IU/L
same,ALT,"[…], time 28 day",33 IU/L
same,AST,"[…], time 28 day",63.6 IU/L
same,BUN,"[…], time 28 day",20.2 mg/dL
same,CRE,"[…], time 28 day",0.5 mg/dL
same,Ca,"[…], time 28 day",11 mg/dL
same,Cl,"[…], time 28 day",105.2 meq/L
same,DBIL,"[…], time 28 day",0.01 mg/dL
same,GLC,"[…], time 28 day",203 mg/dL
same,IP,"[…], time 28 day",7.3 mg/dL
same,K,"[…], time 28 day",4.3 meq/L
same,LDH,"[…], time 28 day",144.4 IU/L
same,Na,"[…], time 28 day",140.6 meq/L
same,PL,"[…], time 28 day",150 mg/dL
same,RALB,"[…], time 28 day",3.9 g/dL
same,TBIL,"[…], time 28 day",0.03 mg/dL
same,TC,"[…], time 28 day",72.6 mg/dL
same,TG,"[…], time 28 day",199.8 mg/dL
same,TP,"[…], time 28 day",6 g/dL
same,gamma-GTP,"[…], time 28 day",0.8 IU/L
